Laboratory results reported in patent US20260109707A1, “HETEROBIFUNCTIONAL COMPOUNDS AND METHODS OF TREATING DISEASE” (Halda Therapeutics OpCo. Inc., priority 2022, published 2026).
Like-named read-outs stand apart in the source and are kept apart here.

Assays:
T47D cells = test: Cellular growth inhibition assay for T47D cells (CellTiter-Glo, 72 hours); assay type: cell-based, human; settings: 72 hours treatment
Procedure, shortened: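 Growth inhibition as GI50, fitted with four parameters to CellTiter-Glo luminescence after 72 h of compound exposure (0.5% DMSO). Cells were T47D, grown in insulin-supplemented (0.2 units/mL) DMEM with 10% FBS and treated one day post-seeding.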

VCaP cells = test: Cellular growth inhibition assay for VCaP cells (CellTiter-Glo, 72 hours); assay type: cell-based, human
Procedure, shortened: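 Luminescent viability signal after 72 h of compound exposure gave GI50 values by four-parameter nonlinear regression. Compounds were added in 0.5% DMSO to cells plated 24 h earlier at 5000/well in DMEM containing 10% FBS.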

[1] = tested on: T-Rex 293 cell line SC3 cells having increased expression of androgen receptor protein due to exposure to doxycycline; test: Cellular growth inhibition assay, T-Rex 293 SC3 cells with doxycycline (CellTiter-Glo, 72 hours); assay type: cell-based; settings: T-Rex 293 SC3 cells with increased androgen receptor expression due to doxycycline (10 ng/mL)
Procedure, shortened: (§1)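 Growth inhibition is measured in an inducible AR-expressing T-Rex 293 clone, SC3, cultured with or without 10 ng/mL doxycycline in hormone-depleted medium. Test compounds are applied for 72 hours. GI50 values derive from CellTiter-Glo 2.0 signal fitted by four-parameter regression.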

[2] = tested on: T-Rex 293 cell line SC3 cells lacking increased expression of androgen receptor protein; test: Cellular growth inhibition assay, T-Rex 293 SC3 cells without doxycycline (CellTiter-Glo, 72 hours); assay type: cell-based; settings: T-Rex 293 cell line SC3 cells not exposed to doxycycline (lacking increased androgen receptor expression)
Procedure, shortened: as §1

Row | SMILES | GI50 (T47D cells; Homo sapiens, T47D, 72 h) | GI50 (VCaP cells; Homo sapiens, VCaP, 72 h) | GI50 ([1]; 72 h) | GI50 ([2]; 72 h) | GI50 (T47D cells) | GI50 (VCaP cells) | GI50 [1] | GI50 [2]
1 | Cc1sc2c(c1C)C(c1ccc(C[C@H]3C[C@]4(CCCN(c5ccc(C(=O)N[C@H]6CC[C@H](Oc7ccc(C#N)c(Cl)c7)CC6)nn5)C4)C3)cc1)=N[C@@H](Cc1ncco1)c1nnc(C)n1-2 [I-119] | < 500 nM | < 500 nM | < 500 nM | < 500 nM | – | – | – | –
2 | Cc1sc2c(c1C)C(c1ccc(N3CCC[C@H](C(=O)N4CCC[C@H](c5ccc(C(=O)N[C@H]6CC[C@H](Oc7ccc(C#N)c(Cl)c7)CC6)nn5)C4)C3)cc1)=N[C@@H](Cc1ncco1)c1nnc(C)n1-2 [I-301] | < 500 nM | < 500 nM | < 500 nM | < 500 nM | – | – | – | –
3 | Cc1sc2c(c1C)C(c1ccc(OC[C@H]3C[C@]4(CCCN(c5ccc(C(=O)N[C@H]6CC[C@H](Oc7ccc(C#N)c(Cl)c7)CC6)nn5)C4)C3)cc1)=N[C@@H](Cc1ncco1)c1nnc(C)n1-2 [I-206] | – | – | – | – | > 3000 nM | > 3000 nM | 500 to 1500 nM | > 3000 nM
4 | Cc1sc2c(c1C)C(c1ccc(CC[C@H]3C[C@@]4(CCCN(c5ccc(C(=O)N[C@H]6CC[C@H](Oc7ccc(C#N)c(Cl)c7)CC6)nn5)C4)C3)nc1)=N[C@@H](Cc1ncco1)c1nnc(C)n1-2 [I-207] | < 500 nM | < 500 nM | < 500 nM | < 500 nM | – | – | – | –
5 | Cc1sc2c(c1C)C(c1ccc(C(=O)N3CCC(Cc4ccc(C(=O)N[C@H]5CC[C@H](Oc6ccc(C#N)c(Cl)c6)CC5)nn4)CC3)cc1)=N[C@@H](Cc1ncco1)c1nnc(C)n1-2 [I-240] | 500 to 1500 nM | > 3000 nM | < 500 nM | > 3000 nM | – | – | – | –
6 | Cc1sc2c(c1C)C(c1ccc(CCC[C@H]3CCCN(c4ccc(C(=O)N[C@H]5CC[C@H](Oc6ccc(C#N)c(Cl)c6)CC5)nn4)C3)cc1)=N[C@@H](Cc1ncco1)c1nnc(C)n1-2 [I-277] | < 500 nM | < 500 nM | < 500 nM | < 500 nM | – | – | – | –
7 | Cc1sc2c(c1C)C(c1ccc(N3CCN(C(=O)c4ccc(C(=O)N[C@H]5CC[C@H](Oc6ccc(C#N)c(Cl)c6)CC5)nn4)CC3)cc1)=N[C@H](Cc1ncco1)c1nnc(C)n1-2 [I-251] | < 500 nM | < 500 nM | < 500 nM | 500 to 1500 nM | – | – | – | –
8 | Cc1sc2c(c1C)C(c1ccc(OC3CC4(C3)CC3(CCN(c5ccc(C(=O)N[C@H]6CC[C@H](Oc7ccc(C#N)c(Cl)c7)CC6)nn5)CC3)C4)cc1)=N[C@@H](C)c1nnc(C)n1-2 [I-435] | > 3000 nM | < 500 nM | < 500 nM | > 3000 nM | – | – | – | –
9 | Cc1sc2c(c1C)C(c1ccc(N3CCC4(CCCN(c5ccc(C(=O)N[C@H]6CC[C@H](Oc7ccc(C#N)c(Cl)c7)CC6)nn5)C4)CC3)cc1)=N[C@@H](C)c1nnc(C)n1-2 [I-427] | – | < 500 nM | < 500 nM | – | 500 to 1500 nM | – | – | 500 to 1500 nM
10 | Cc1sc2c(c1C)C(c1ccc(OC3CCC4(C3)CN(c3ccc(C(=O)N[C@H]5CC[C@H](Oc6ccc(C#N)c(Cl)c6)CC5)nn3)C4)cc1)=N[C@@H](Cc1ncco1)c1nnc(C)n1-2 (stereo partly drawn) [I-85] | < 500 nM | < 500 nM | < 500 nM | < 500 nM | – | – | – | –
11 | Cc1sc2c(c1C)C(c1ccc(OC[C@H]3CCCN(c4ccc(C(=O)N[C@H]5CC[C@H](Oc6ccc(C#N)c(Cl)c6)CC5)nn4)C3)cc1)=N[C@@H](Cc1ncco1)c1nnc(C)n1-2 [I-219] | 1500 to 3000 nM | 500 to 1500 nM | < 500 nM | 1500 to 3000 nM | – | – | – | –
12 | Cc1sc2c(c1C)C(c1ccc(OC[C@@H]3CC[C@@]4(CCCN(c5ccc(C(=O)N[C@H]6CC[C@H](Oc7ccc(C#N)c(Cl)c7)CC6)nn5)C4)C3)nc1)=N[C@@H](Cc1ncco1)c1nnc(C)n1-2 [I-330] | > 3000 nM | < 500 nM | < 500 nM | > 3000 nM | – | – | – | –
13 | Cc1sc2c(c1C)C(c1ccc([C@H]3C[C@@H](C[C@H]4CCCN(c5ccc(C(=O)N[C@H]6CC[C@H](Oc7ccc(C#N)c(Cl)c7)CC6)nn5)C4)C3)cc1)=N[C@@H](Cc1ncco1)c1nnc(C)n1-2 [I-356] | > 3000 nM | > 3000 nM | > 3000 nM | > 3000 nM | – | – | – | –
14 | Cc1sc2c(c1C)C(c1ccc(OC3CC4(CCN(c5ccc(C(=O)N[C@H]6CC[C@H](Oc7ccc(C#N)c(Cl)c7)CC6)nn5)CC4)C3)cc1)=NC(Cc1ncco1)c1nnc(C)n1-2 (stereo partly drawn) [I-77] | 1500 to 3000 nM | < 500 nM | < 500 nM | 500 to 1500 nM | – | – | – | –
15 | Cc1sc2c(c1C)C(c1ccc(C(C)(C)N3CC4(CCN(c5ccc(C(=O)N[C@H]6CC[C@H](Oc7ccc(C#N)c(Cl)c7)CC6)nn5)CC4)C3)cc1)=N[C@@H](Cc1ncco1)c1nnc(C)n1-2 [I-391] | > 3000 nM | > 3000 nM | < 500 nM | > 3000 nM | – | – | – | –
